In general, pIC50 refers to the IC50 on a negative log10 scale, so that one unit is a factor of ten. A word on the pKi: it is the Ki on a negative log10 scale, so that one unit is a factor of ten. Higher therefore signals a low Ki.

The source of these data is ChEMBL document CHEMBL1130874, “Heteroatom- and carbon-linked biphenyl analogs of Brequinar as immunosuppressive agents” (Bioorg Med Chem Lett, 1998).

SMILES strings stand for the structures. pIC50, pKi: −log10 of the molar value. Bounds are passed on as bounds.

A short description of test [1]: Ability to inhibit proliferation in a mixture of human lymphocytes from two unrelated donors in MLR (human mixed lymphocyte reaction). In kind it is functional, cell-based.
Test [2] deals with Dihydroorotate dehydrogenase (quinone), mitochondrial (Homo sapiens, UniProt Q02127). The test is described as follows: Immunosuppressive effect in an isolated enzyme assay using partially purified Dihydroorotate dehydrogenase from human liver for inhibition of the formation of orotate from radiolabeled dihydroorotate.
Dihydroorotate dehydrogenase (quinone), mitochondrial, sequence (Q02127 whole entry): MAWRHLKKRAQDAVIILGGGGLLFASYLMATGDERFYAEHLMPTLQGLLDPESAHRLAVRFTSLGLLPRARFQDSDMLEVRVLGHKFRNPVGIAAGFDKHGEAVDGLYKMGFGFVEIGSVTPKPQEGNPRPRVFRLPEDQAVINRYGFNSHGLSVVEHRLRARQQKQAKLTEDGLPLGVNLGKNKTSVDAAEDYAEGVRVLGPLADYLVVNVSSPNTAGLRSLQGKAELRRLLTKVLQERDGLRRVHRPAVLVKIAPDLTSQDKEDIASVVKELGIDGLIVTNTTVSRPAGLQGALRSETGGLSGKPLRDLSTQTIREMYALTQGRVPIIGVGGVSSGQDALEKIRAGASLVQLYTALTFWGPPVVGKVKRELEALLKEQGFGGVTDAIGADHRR

Regarding `Cc1c(Oc2ccccc2)nc2ccc(F)cc2c1C(=O)O`, in test [1], the pIC50 is less than 5.00. Further, the pKi in test [2] was less than 6.00. Taken in the same sequence, the figures for `COc1cc(-c2ccccc2)c2c(c1)N(c1nc3ccc(F)cc3c(C(=O)O)c1C)CC2` were 7.46 and 7.66. Taken in the same sequence, the figures for `COc1ccccc1-c1cccc2c(-c3nc4ccc(F)cc4c(C(=O)O)c3C)cn(C)c12` were 6.19 and 7.40. With `Cc1c(-n2ccc3c(-c4ccccc4)cccc32)nc2ccc(F)cc2c1C(=O)O`, the negative-log IC50 (pIC50) in test [1] was 6.42. The compound also had a negative-log Ki (pKi) in test [2] of 8.35. Taken in the same sequence, the figures for `CC(=O)N(c1cccc(-c2ccccc2)c1)c1nc2ccc(F)cc2c(C(=O)O)c1C` were less than 5.00 and less than 6.41. In the case of `Cc1c(-c2c[nH]c3c(-c4ccccc4)cccc23)nc2ccc(F)cc2c1C(=O)O`, the pIC50 in test [1] was 5.80. Also, the pKi in test [2] is less than 6.89. Consider `Cc1c(N2CCc3c(-c4ccccc4)cc(F)cc32)nc2ccc(F)cc2c1C(=O)O`, for which, in test [1], the negative-log IC50 (pIC50) was 7.39. The compound also showed a negative logarithm of the Ki (pKi) in test [2] of 7.52. In the case of `Cc1c(N(C)c2cccc(-c3ccccc3)c2)nc2ccc(F)cc2c1C(=O)O`, the pIC50 in test [1] was less than 5.00. The pKi in test [2] was 6.62.

For `Cc1c(N2CCc3c(-c4ccccc4)cccc32)nc2ccc(F)cc2c1C(=O)O`, the negative logarithm of the IC50 (pIC50) in test [1] was 7.59. Further, the negative-log Ki (pKi) in test [2] was 7.82. On to `Cc1c(Nc2ccc(-c3ccccc3)cc2)nc2ccc(F)cc2c1C(=O)O`, for which, in test [1], the negative-log IC50 (pIC50) was less than 5.00. The compound also gave a negative-log Ki (pKi) in test [2] of less than 6.37. Taken in the same sequence, the figures for `COc1cccc(-c2cccc3c(-c4nc5ccc(F)cc5c(C(=O)O)c4C)cn(C)c23)c1` were 6.72 and 7.49. Taken in the same sequence, the figures for `Cc1c(-c2cccc3c(-c4ccccc4)cccc23)nc2ccc(F)cc2c1C(=O)O` were 6.82 and 7.59. Taken in the same sequence, the figures for `COc1ccccc1-c1cccc2c1CCN2c1nc2ccc(F)cc2c(C(=O)O)c1C` were 8.39 and 7.52. Take `Cc1c(Nc2cccc(-c3ccccc3)c2)nc2ccc(F)cc2c1C(=O)O`: the negative-log IC50 (pIC50) in test [1] is 6.47. Moreover, in test [2], the negative logarithm of the Ki (pKi) was 7.08. Regarding `Cc1c(N2CCc3c(-c4cccc(C(F)(F)F)c4)cccc32)nc2ccc(F)cc2c1C(=O)O`, the pIC50 in test [1] is 9.39. Further, in test [2], the pKi is 7.62. For the compound `Cc1ccccc1-c1cccc2c1CCN2c1nc2ccc(F)cc2c(C(=O)O)c1C`, in test [1], the pIC50 is 8.80. Also, the negative-log Ki (pKi) in test [2] is 7.60. With `Cc1c(OCc2cccc(-c3ccccc3)c2)nc2ccc(F)cc2c1C(=O)O`, the pIC50 in test [1] is less than 5.00. Also, in test [2], the negative logarithm of the Ki (pKi) is 6.48. For `Cc1c(-c2ccc(-c3ccccc3F)cc2)nc2ccc(F)cc2c1C(=O)O` [BREQUINAR SODIUM], the pIC50 in test [1] was 7.82.

As to `Cc1c(-n2cnc3c(-c4ccccc4)cccc32)nc2ccc(F)cc2c1C(=O)O`, the pIC50 in test [1] was 5.33. The negative-log Ki (pKi) in test [2] is 7.15. Taken in the same sequence, the figures for `Cc1c(-c2cn(C)c3c(-c4cccc(C(F)(F)F)c4)cccc23)nc2ccc(F)cc2c1C(=O)O` were 8.15 and 7.64. Consider `Cc1c(Nc2ccccc2)nc2ccc(F)cc2c1C(=O)O`, for which the negative logarithm of the IC50 (pIC50) in test [1] was less than 5.00. This compound also showed a pKi in test [2] of less than 6.70. Taken in the same sequence, the figures for `COc1cccc(-c2cccc3c2CCN3c2nc3ccc(F)cc3c(C(=O)O)c2C)c1` were 8.40 and 7.47. With `Cc1c(-c2cn(C)c3c(-c4ccccc4)cccc23)nc2ccc(F)cc2c1C(=O)O`, the pIC50 in test [1] was 6.85. The same compound showed a negative-log Ki (pKi) in test [2] of 7.57. For `Cc1c(Oc2cccc(-c3ccccc3)c2)nc2ccc(F)cc2c1C(=O)O`, the pIC50 in test [1] is 6.68. Further, the pKi in test [2] is 7.68.

For the compound `Cc1c(OCc2ccc(-c3ccccc3)cc2)nc2ccc(F)cc2c1C(=O)O`, in test [1], the pIC50 was less than 5.00. The negative logarithm of the Ki (pKi) in test [2] was less than 6.70. Taken in the same sequence, the figures for `Cc1c(Oc2ccc(-c3ccccc3)cc2)nc2ccc(F)cc2c1C(=O)O` were less than 5.00 and less than 6.00. Taken in the same sequence, the figures for `Cc1c(N2CCc3c(-c4ccccc4F)cccc32)nc2ccc(F)cc2c1C(=O)O` were 8.55 and 7.62.
